According to PubChem BioAssay (NCI):
Where “and” joins values, the source holds several entries; their conditions need not be identical. Equal values may be shown once.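 How tested: cells in 96-well plates exposed to compound for 48 hours at five concentrations. GI50 is the concentration that inhibits growth by half. TGI is the concentration that stops growth completely.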

Experiments:
Test in all cases: NCI anticancer screen, dose series, 48 h
SNB-19 CNS = tested on: SNB-19 CNS
HS 578T breast = tested on: HS 578T breast
COLO 205 colon = tested on: COLO 205 colon
SF-539 CNS = tested on: SF-539 CNS
MDA-MB-435 = tested on: MDA-MB-435
EKVX NSCLC = tested on: EKVX NSCLC
NCI-H460 lung = tested on: NCI-H460 lung
ACHN renal = tested on: ACHN renal
SR leukemia = tested on: SR leukemia
SNB-75 CNS = tested on: SNB-75 CNS

| SMILES | TGI (SNB-19 CNS) | TGI (HS 578T breast) | TGI (COLO 205 colon) | TGI (SF-539 CNS) | TGI (MDA-MB-435) | TGI (EKVX NSCLC) | TGI (NCI-H460 lung) | TGI (ACHN renal) | TGI (SR leukemia) | TGI (SNB-75 CNS) | GI50 (SNB-19 CNS) | GI50 (HS 578T breast) | GI50 (COLO 205 colon) | GI50 (SF-539 CNS) | GI50 (MDA-MB-435) | GI50 (EKVX NSCLC) | GI50 (NCI-H460 lung) | GI50 (ACHN renal) | GI50 (SR leukemia) | GI50 (SNB-75 CNS) |
| --- | --- | --- | --- | --- | --- | --- | --- | --- | --- | --- | --- | --- | --- | --- | --- | --- | --- | --- | --- | --- |
| O=C1c2sccc2-c2cccc3cccc1c23 (tested in a mixture with another compound) | 35 µM | 6.72 µM | 15.6 µM | 32.2 µM | > 100 µM | 0.105 µM | 82.6 µM | 12.2 µM | 2.02 µM | 37.3 µM | – | – | – | – | – | – | – | – | – | – |
| OC(C#Cc1ccccc1)(c1ccccc1)c1ccccc1 | > 100 µM | > 100 µM | > 100 µM | > 100 µM | 56.3 µM | 82.4 µM | 50.6 µM | > 100 µM | > 100 µM | > 100 µM | – | – | – | – | – | – | – | – | – | – |
| CCCCCCNC(=O)Oc1ccc(/C(=C(\C)c2ccc(Cl)cc2)c2ccc(OCCN3CCCCC3)cc2)cc1 | 28.9 µM | 11.6 µM | 6.44 µM | 8.55 µM | 7.98 µM | 14.4 µM | 5.46 µM | 9.55 µM | 2.14 µM | 14.3 µM | 6.37 µM | 4.22 µM | 1.44 µM | 3.99 µM | 3.73 µM | 5.04 µM | 1.57 µM | 4.87 µM | 0.727 µM | 5.59 µM |
| C=CCN1CC(=O)N2[C@@H](Cc3ccc(O)cc3F)C(=O)N(Cc3cccc(N4CC(N5CCN(CC)CC5)C4)n3)C[C@@H]2N1C(=O)NCc1ccccc1 | > 100 µM | 0.15 µM | 0.262 µM | 0.288 µM | > 100 µM | > 100 µM | > 100 µM | > 100 µM | 1.7 µM | 0.131 µM | 0.0324 µM | 0.0279 µM | 0.028 µM | 0.0317 µM | 0.102 µM | 0.278 µM | 0.038 µM | 0.393 µM | 0.0292 µM | 0.017 µM |
| COc1ccc(/C=C(\C#N)n2nnc3c(F)cccc32)cc1 | 18.2 µM | 1.98 µM | > 100 µM | 1.48 µM | 0.371 µM | > 100 µM | > 100 µM | > 51.6 µM | > 100 µM | 0.517 µM | 0.412 µM | 0.309 µM | 0.38 µM | 0.322 µM | 0.052 µM | 0.501 µM | 0.413 µM | 0.689 µM | 0.161 µM | 0.17 µM |
| COc1cc2nc(-c3cc(F)ccc3O)nc(N[C@@H]3CNC[C@H]3C(C)(C)O)c2cc1OC | 4.02 µM | 5.74 µM | 3.16 µM | 3 µM | 3.03 µM | 3.02 µM | 3.47 µM | 3.38 µM | 3.62 µM | 2.71 µM | 1.91 µM | 1.72 µM | 1.63 µM | 1.55 µM | 1.65 µM | 1.44 µM | 1.83 µM | 1.75 µM | 1.27 µM | 0.42 µM |
| Cn1cc(C2=C(c3cccc(OC[C@@H](O)CO)c3)C(=O)NC2=O)c2ccccc21 | > 25 µM | > 25 µM | > 25 µM | > 25 µM | > 25 µM | – | > 25 µM | > 25 µM | > 25 µM | > 25 µM | > 25 µM | 1.39 µM | > 18.3 µM | > 19.4 µM | > 25 µM | – | > 25 µM | 16.5 µM | > 11.2 µM | 0.0944 µM |
| Cc1cc[n+]2c(c1)-c1cc(C)cc[n+]1CC2 | > 100 µM | > 100 µM | > 86.1 µM | > 100 µM | > 100 µM | > 100 µM | > 100 µM | > 100 µM | > 100 µM | > 100 µM | – | – | – | – | – | – | – | – | – | – |
| C[C@]12CC[C@@H]3c4cc(OC(F)F)c(OS(N)(=O)=O)cc4CC[C@H]3[C@@H]1CC[C@@H]2O | 25.6 µM | 30.2 µM | 13.9 µM | 4.58 µM | 0.603 µM | 54.8 µM | 11.3 µM | 49.1 µM | > 100 µM | 0.665 µM | 0.532 µM | 0.366 µM | 0.653 µM | 0.333 µM | 0.209 µM | 0.709 µM | 0.401 µM | 0.65 µM | 0.303 µM | 0.193 µM |
| Oc1cccc2ccc(N/N=C/c3cc(CN4CCOCC4)c(O)c4ncccc34)nc12 | 12.6 µM | 17.2 µM | 1.6 µM | 1.64 µM | 2.86 µM | 11.2 µM | 1.2 µM | 1.47 µM | 4.38 µM | 2 µM | 0.0169 µM | 0.0479 µM | 0.117 µM | 0.0352 µM | 0.0165 µM | 0.0962 µM | < 0.0104 µM | < 0.0119 µM | 0.0332 µM | 0.0253 µM |
| Cc1cc(C)nc(SC2=C(Nc3cc(Cl)ccc3O)C(=O)N(Cc3ccccc3)C2=O)n1 | > 160 µM | 87.5 µM | 90.7 µM | > 160 µM | > 160 µM | > 160 µM | > 160 µM | > 160 µM | 70.6 µM | 104 µM | > 160 µM | 28.1 µM | 36.4 µM | > 160 µM | 62.2 µM | 57.7 µM | 56.6 µM | 43.5 µM | 18.6 µM | 21.8 µM |
| NS(=O)(=O)c1ccc(-c2cc3ccncc3cc2OCc2ccccc2)cc1 | > 25 µM | > 25 µM | > 25 µM | > 25 µM | > 25 µM | > 25 µM | > 25 µM | > 25 µM | > 23.4 µM | > 25 µM | > 25 µM | 7.04 µM | > 21.2 µM | 7.17 µM | > 25 µM | > 22.9 µM | 9.77 µM | > 19 µM | 6.58 µM | 5.27 µM |
| CC1(C)CC(=O)C2=C(C1)OC(N)=C(c1nc(-c3ccccc3)cs1)C2c1ccc(Br)cc1 (configuration not stated) | > 150 µg/mL | > 150 µg/mL | > 150 µg/mL | > 150 µg/mL | > 150 µg/mL | > 150 µg/mL | > 150 µg/mL | > 150 µg/mL | > 150 µg/mL | 46.9 µg/mL | > 150 µg/mL | 38.5 µg/mL | 41.8 µg/mL | 94.8 µg/mL | 92.6 µg/mL | 64.5 µg/mL | 42.3 µg/mL | 61.5 µg/mL | 112 µg/mL | 0.547 µg/mL |
| COC1C(N)C(OC2C(Oc3cccc4c(O)c5c(=O)oc6ccc(C)c7c(=O)oc(c34)c5c67)OC(C)C(O)C2(C)O)OC(C)C1O (configuration not stated) | 0.469 µM | 0.886 µM | 0.383 µM | 0.208 µM | 0.219 µM | 1.03 µM | 0.139 µM | 1.5 µM | 8.12 µM | 0.356 µM | – | – | – | – | – | – | – | – | – | – |
| Cc1cc(N=Nc2ccccc2C)ccc1N | > 100 µM and 56 µM | 32.1 µM and 45.9 µM | 33.6 µM and 32.4 µM | 12.1 µM and 11.6 µM | 49.3 µM and 46 µM | 45.4 µM and 68 µM | 17.7 µM and 31.2 µM | 28.7 µM and 45.8 µM | 52.1 µM and 61.6 µM | 28.1 µM and 31.9 µM | 16.4 µM | 13.3 µM | – | – | 12.7 µM | 11.7 µM | 12.3 µM | 14.7 µM | 8.49 µM | 4.1 µM |
| Oc1c(I)cc(I)c2cccnc12 | 22.5 µM | > 100 µM | 17 µM | 23.5 µM | > 100 µM | 24.2 µM | 10.4 µM | 26.8 µM | > 100 µM | > 100 µM | 3.33 µM | 7.24 µM | 3.6 µM | 4.16 µM | 4.41 µM | 3.38 µM | 2.93 µM | 4.19 µM | 5.75 µM | 15.3 µM |
| OCCNC1c2cc(Cl)ccc2-c2c(Cl)cc(Cl)cc21 (configuration not stated) | > 100 µM | > 100 µM | > 100 µM | > 100 µM | > 100 µM | > 100 µM | 63.4 µM | 67 µM | 44.9 µM | > 100 µM | – | – | – | – | – | – | – | – | – | – |
| O=C(CCCCCCN1CC(=O)N2[C@@H](c3ccc(Cl)c(Cl)c3)c3[nH]c4ccccc4c3C[C@H]2C1=O)NO | 12.5 µM | 15.6 µM | 10.1 µM | 9.27 µM | 8.06 µM | > 33.3 µM | 9.15 µM | 12.9 µM | 3.1 µM | 7 µM | 4.54 µM | 3.52 µM | 3.5 µM | 3.76 µM | 3.13 µM | 7.71 µM | 2.77 µM | 5.34 µM | 0.689 µM | 0.832 µM |
| O=C(Nc1cccc(-n2cc(-c3ccncc3)c(-c3cc(O)cc(Cl)c3)n2)c1)c1cc(C(F)(F)F)cc(C(F)(F)F)c1 | > 100 µM | > 100 µM | 5.74 µM | 51.7 µM | > 100 µM | – | > 100 µM | > 100 µM | 5.01 µM | > 100 µM | 7.03 µM | 6.38 µM | 2.32 µM | 5.01 µM | 3.16 µM | – | 3.04 µM | 4.98 µM | 1.61 µM | 2.8 µM |
| COC(=O)[C@H]1CCCN1C(=O)[C@H]1CCCN1C(=O)[C@@H](Cc1c[nH]c2ccccc12)NC(=S)Nc1cc(C(F)(F)F)cc(C(F)(F)F)c1 | 5.72 µM | 5.17 µM | 3.49 µM | 3.61 µM | 3.58 µM | – | 4.1 µM | 7.78 µM | 5.65 µM | 5.82 µM | 2.14 µM | 2.03 µM | 1.83 µM | 1.92 µM | 1.8 µM | – | 1.96 µM | 2.51 µM | 2.53 µM | 1.52 µM |
